Earlier results on one compound are cited in patent US8222245B2, “Oxadiazole derivatives active on sphingosine-1-phosphate (S1P)” (Glaxo Group Limited, priority 2007, dated 2012).

Data set [1] deals with circulating lymphocytes. The note with it: animals and man.
The conditions of data set [2]: clinical studies, first 24 hours of treatment.

With `CCCCCCCCc1ccc(CCC(N)(CO)CO)cc1` [FTY720], the “effect on circulating lymphocytes” value in data set [1] was “reduce circulating lymphocytes in animals and man”. Moreover, the bradycardia on treatment result in data set [2] is reported as “bradycardia in the first 24 hours of treatment”.
